Laboratory results taken from patent US4542169A, “Biomedical devices containing isothiazolones to control bacteria growth” (Rohm and Haas Company, priority 1983, dated 1985).
Values after ≈ are worked out from the molar mass of the structure shown.

How the values were obtained:
[1] = tested on: Aspergillis niger (A.n.); assay: Growth of fungus on polyvinyl chloride film; format: cell-based; parameters: key: 0: zero (no growth); 5: five (heavy growth); conditions: PVC film
Method: (§1) In a two-liter, three-necked, round-bottom, flask equipped with a mechanical stirrer was placed 100 g of polyvinyl chloride, 590 g of reagent grade tetrahydrofuran, and 40.0 g of dioctylphthalate. This was stirred with gentle heating (35°-40° C.) for two hours to completely dissolve the polyvinyl chloride. Then, a barium/calcium salt of a fatty acid (3.5 g), a phosphite chelating agent (1.5 g), stearic Acid (0.25 g) and epoxidized soy bean oil (7.5 g), were mixed with 21 g of tetrahydrofuran and added to the polyvinyl chloride solution. After stirring at room temperature for 30 minutes, the solution was ready for use.
(§2) Films containing the isothiazolones were cast by first preparing a 0.5 weight percent polyvinyl chloride solution by adding the isothiazolone to the polyvinyl chloride solution. Then, portions of the 0.5% solution were diluted to 0.1 and 0.05%. The films were drawn down on 12"×12" glass plates using a 50 mil-3" wide coating bar and the films were allowed to air dry for 48 hours.
(§3) In addition to zones of inhibition, the films were observed by growth of fungus on the film and rated from zero (no growth) to five (heavy growth).

[2] = tested on: Aerobasidium pullulans (A.p); assay: Growth of fungus on polyvinyl chloride film; format: cell-based; parameters: key: 0: zero (no growth); 5: five (heavy growth); conditions: PVC film
Method: as §1, §2, §3

[3] = tested on: sessile colonization by bacteria or fungi; assay: Implanted silicone rubber urinary catheters in dogs, growth after one week; format: in vivo; conditions: silicone catheter; for Agar culture / Visual Examination: one week
Description: These are inserted into large male dogs held in restraining harnesses. The catheters are examined for visible growth and cultured onto agar over a period of one week.

[4] = tested on: P.a.; assay: Zone of inhibition, silicone film; format: cell-based, Pseudomonas aeruginosa
[5] = tested on: Escherichia coli; assay: Minimum inhibitory concentration, bacteriostatic activity; format: cell-based; conditions: Table III: Active Ingredient MIC
[6] = tested on: E.c.; assay: Zone of inhibition, silicone rubber film discs on inoculated agar; format: cell-based, Echerichia coli; conditions: for Zones: Silicone; for Zone of Inhibition: silicone rubber film
Description: (§4) The films were cut into 1.25 cm discs and placed in agar plates inoculated with Staphlococcus aureus (S.a) or Echerichia coli (E.c.).
(§5) The films were cut into discs and tested as in example one against S.a. and E.c.

[7] = tested on: sessile colonization; assay: Implanted polyvinyl chloride coated pacemakers in dogs, growth after one month; format: in vivo; conditions: for Agar culture / Visual Observation: PVC-coated pacemaker, one month
Description: The devices are inserted into dogs and allowed to remain without electrical activation for a period of one month. The devices are then removed and examined visually and by agar cultures from the surface.

[8] = tested on: S.a.; assay: Zone of inhibition, silicone rubber film discs on inoculated agar; format: cell-based, Staphlococcus aureus; conditions: for Zones: Silicone; for Zones / Zone of Inhibition: S.a.; for Zone of Inhibition: silicone rubber film
Description: as §4, §5

[9] = tested on: Pseudomonas aeruginosa (P.a.); assay: Zone of inhibition, polyvinyl chloride (vinyl) film discs; format: cell-based; conditions: vinyl film
Method: as §1, §4
Discs were tested against Pseudomonas aeruginosa (P.a.). The 1.0% films gave a slight zone of inhibition while the 5.0% film gave a 1 mm zone of inhibition.

[10] = tested on: Staphylococcus aureus; assay: Minimum inhibitory concentration, bacteriostatic activity; format: cell-based; conditions: Table III: Active Ingredient MIC
[11] = tested on: resistant bacterial colonies; conditions: with time
[12] = tested on: fungi; assay: Observation of incubated plates (antibiotics vs Compound 1): fungal overgrowth; format: cell-based; conditions: as the plates were allowed to incubate
[13] = Solubility in H2O; format: physicochemical; conditions: water
[14] = tested on: Staphlococcus aureus (S.a); assay: Zone of inhibition, polyvinyl chloride film discs on inoculated agar; format: cell-based; conditions: PVC film
Method: as §1, §2, §4

[15] = tested on: Echerichia coli (E.c.); assay: as above; format: cell-based; conditions: PVC film
Method: as §1, §2, §4

[16] = tested on: Aerobasidium pullulans (A.p); assay: Zone of inhibition, polyvinyl chloride film; format: cell-based; conditions: PVC film
[17] = tested on: Aureobasidium pullulans; assay: Minimum inhibitory concentration, fungistatic activity; format: cell-based; conditions: Table III: Active Ingredient MIC
[18] = tested on: Aspergillis niger (A.n.); assay: Zone of inhibition, polyvinyl chloride film; format: cell-based; conditions: PVC film
[19] = tested on: Candida albicans (yeast); assay: Minimum inhibitory concentration, fungistatic activity; format: cell-based; conditions: Table III: Active Ingredient MIC
[20] = tested on: Aspergillus niger; assay: as above; format: cell-based; conditions: Table III: Active Ingredient MIC
[21] = tested on: Pseudomonas aeruginosa; assay: Minimum inhibitory concentration, bacteriostatic activity; format: cell-based; conditions: Table III: Active Ingredient MIC

In the case of O=c1c(Cl)c(Cl)sn1C1CCCCC1 [Compound 1, 4,5-Dichloro-N--cyclohexyl-isothiazolin-3-one], the “Growth on Film” value ([1]; 0.05%) is reported as 1, the “Growth on Film” value ([1]; 0.1%) is reported as 0 and the “Growth on Film” value ([1]; 0.5%) is reported as 0. For the same compound, the “Growth on Film” value ([2]; 0.05%) was 0, the “Growth on Film” value ([2]; 0.1%) was 0 and the “Growth on Film” value ([2]; 0.5%) was 0. For the same compound, the “efficacy in resisting sessile colonization” value [3] was “resisting sessile colonization by bacteria or fungi”, the Agar culture ([3]; 0.05% by weight) was “+2” and the “Visual Examination” value ([3]; 0.05% by weight) was “slight slime”. The Agar culture ([3]; 0.1% by weight) was “+1”, the “Visual Examination” value ([3]; 0.1% by weight) was “clean” and the Agar culture ([3]; 0.5% by weight) was 0. For the same compound, the “Visual Examination” value ([3]; 0.5% by weight) was “clean”, the Agar culture ([3]; 1.0% by weight) was 0 and the “Visual Examination” value ([3]; 1.0% by weight) was “clean”. For the same compound, the Zones ([4]; 1.0%) was 3.3 mm, the Zones ([4]; 5.0%) was 3.3 mm and the Zones ([4]; .20%) was 0.8 mm. For the same compound, the MIC [5] was 16 µg/mL (≈ 63.5 µM), the Zones ([6]; 1.0%) was 16.3 mm and the Zones ([6]; 5.0%) was 16.3 mm. For the same compound, the Zones ([6]; .20%) was 14.3 mm, the “Zone of Inhibition” value ([6]; Conc. 10) was 0.1 mm and the “Zone of Inhibition” value ([6]; Conc. 100) was 5.5 mm. The “Zone of Inhibition” value ([6]; Conc. 1000) was 13.0 mm, the Agar culture ([7]; 0.05%) was “+3” and the “Visual Observation” value ([7]; 0.05%) was “slime covered”. The Agar culture ([7]; 0.1%) was “+1”, the “Visual Observation” value ([7]; 0.1%) was “slight slime layer” and the Agar culture ([7]; 0.5%) was “trace”. The “Visual Observation” value ([7]; 0.5%) was “clean”, the Agar culture ([7]; 1.0%) was 0 and the “Visual Observation” value ([7]; 1.0%) was “clean”. The “efficacy in resisting sessile colonization” value ([7]; treated polyvinyl chloride, compared to untreated control) was “resisting sessile colonization, particularly as compared to untreated control”, the “bacteriocide activity compared with the best commercial antibiotics” value ([8]; PVC and silicone films, Table E) was “essential equivalency” and the Zones ([8]; 1.0%) was 20.3 mm. For the same compound, the Zones ([8]; 5.0%) was 20.3 mm, the Zones ([8]; .20%) was 17.8 mm and the “Zone of Inhibition” value ([8]; Conc. 10) was 0.8 mm. For the same compound, the “Zone of Inhibition” value ([8]; Conc. 100) was 6.8 mm, the “Zone of Inhibition” value ([8]; Conc. 1000) was 16.3 mm and the Zone of Inhibition ([9]; 1.0% by weight) was “slight”. The Zone of Inhibition ([9]; 5.0% by weight) was 1 mm, the MIC [10] was 10 µg/mL (≈ 39.7 µM) and the “resistant bacterial colonies on plates” value [11] was “ability to suppress all species and not permit the growth of antibiotic resistant species”. The “overgrowth of plates by fungi” value [12] was “clean”, the solubility [13] was 91 µg/mL (≈ 361 µM) and the “Zone of Inhibition” value ([14]; 0.05%) was 1.8 mm. The “Zone of Inhibition” value ([14]; 0.1%) was 4.3 mm, the “Zone of Inhibition” value ([15]; 0.05%) was 0.8 mm and the “Zone of Inhibition” value ([15]; 0.1%) was 1.8 mm. For the same compound, the “Zone of Inhibition” value ([15]; 0.5%) was 4.8 mm, the “Zone of Inhibition” value ([16]; 0.05%) was 0 mm and the “Zone of Inhibition” value ([16]; 0.1%) was 0 mm. The “Zone of Inhibition” value ([16]; 0.5%) was 5.3 mm, the MIC [17] was 0.5 µg/mL (≈ 1.98 µM) and the “Zone of Inhibition” value ([18]; 0.05%) was 0 mm. The “Zone of Inhibition” value ([18]; 0.1%) was 0 mm, the “Zone of Inhibition” value ([18]; 0.5%) was 5.3 mm and the MIC [19] was 0.5 µg/mL (≈ 1.98 µM). The MIC [20] was 0.5 µg/mL (≈ 1.98 µM) and the MIC [21] was 62 µg/mL (≈ 246 µM).
